Test results reported in ChEMBL document CHEMBL5543109, “Novel β-Hairpin Antimicrobial Peptide Containing the β-Turn Sequence of -NG- and the Tryptophan Zippers Facilitate Self-Assembly into Nanofibers, Exhibiting Excellent Antimicrobial Performance” (J Med Chem, 2024).
Values after ≈ are worked out from the molar mass of the structure shown. Blank lines part the entries; values can stand above or below the compound they belong to. Active and inactive are the calls of the source. No cut-off for these calls is given here.

Assays:
[1] = tested on: Pseudomonas aeruginosa; assay: Induction of morphological change in Pseudomonas aeruginosa assessed as bacterial collapse at 2 times MIC incubated for 30 mins by SEM analysis; assay type: functional, organism-based
[2] = tested on: Staphylococcus aureus; assay: Antibacterial activity against kanamycin resistant Staphylococcus aureus incubated for 18 hrs by broth microdilution method; assay type: functional
[3] = tested on: Staphylococcus aureus; assay: Antibacterial activity against methicillin resistant Staphylococcus aureus incubated for 18 hrs by broth microdilution method; assay type: functional
[4] = tested on: Staphylococcus aureus; assay: Antibacterial activity against Staphylococcus aureus incubated for 18 hrs by broth microdilution method; assay type: functional
[5] = tested on: Staphylococcus aureus; assay: Bactericidal activity against Staphylococcus aureus ATCC 25923 incubated for 18 hrs by broth microdilution method; assay type: functional
[6] = tested on: Staphylococcus aureus; assay: Induction of morphological distortion in Staphylococcus aureus assessed as bacterial collapse at 2 times MIC incubated for 30 mins by SEM analysis; assay type: functional, organism-based
[7] = tested on: Pseudomonas aeruginosa; assay: Drug resistance against Pseudomonas aeruginosa assessed as fold increase in MIC after 40 consecutive days of passages by sequential passaging method; assay type: functional
[8] = tested on: Staphylococcus epidermidis; assay: Antibacterial activity against Staphylococcus epidermidis ATCC 12228 incubated for 18 hrs by broth microdilution method; assay type: functional
[9] = tested on: Cell membrane; assay: Induction of cell membrane disruption in Escherichia coli assessed as PI uptake at 2 times MIC incubated for 2 hrs by PI staining based flow cytometry analysis (reference value: 11.9%); assay type: cell membranes
[10] = tested on: Escherichia coli; assay: Antibacterial activity against Escherichia coli ATCC 25922 incubated for 18 hrs by broth microdilution method; assay type: functional
[11] = tested on: Staphylococcus aureus; assay: Antibacterial activity against rifampicin resistant Staphylococcus aureus incubated for 18 hrs by broth microdilution method; assay type: functional
[12] = tested on: Cell membrane; assay: Induction of cell membrane disruption in Staphylococcus aureus assessed as PI uptake at 4 times MIC incubated for 2 hrs by PI staining based flow cytometry analysis (reference value: 15.9%); assay type: cell membranes
[13] = tested on: Cell membrane; assay: Induction of cell membrane disruption in Escherichia coli assessed as PI uptake at 4 times MIC incubated for 2 hrs by PI staining based flow cytometry analysis (reference value: 11.9%); assay type: cell membranes
[14] = tested on: Staphylococcus aureus; assay: Antibacterial activity against Staphylococcus aureus S125 incubated for 18 hrs by broth microdilution method; assay type: functional
[15] = tested on: Staphylococcus aureus; assay: Antibacterial activity against methicillin resistant Staphylococcus aureus 75 incubated for 18 hrs by broth microdilution method; assay type: functional
[16] = tested on: Pseudomonas aeruginosa; assay: Induction of morphological distortion in Pseudomonas aeruginosa assessed as bacterial collapse at 2 times MIC incubated for 30 mins by SEM analysis; assay type: functional, organism-based
[17] = tested on: Pseudomonas aeruginosa; assay: Induction of morphological change in Pseudomonas aeruginosa assessed as bacterial lysis at 2 times MIC incubated for 30 mins by SEM analysis; assay type: functional, organism-based
[18] = tested on: Escherichia coli; assay: Bactericidal activity against Escherichia coli ATCC 25922 incubated for 18 hrs by broth microdilution method; assay type: functional
[19] = tested on: Staphylococcus aureus; assay: Antibacterial activity against Staphylococcus aureus S794 incubated for 18 hrs by broth microdilution method; assay type: functional
[20] = tested on: Cell membrane; assay: Induction of cell membrane disruption in Escherichia coli assessed as PI uptake at 2 to 4 times MIC incubated for 2 hrs by PI staining based confocal laser scanning microscopy; assay type: cell membranes
[21] = tested on: Cell membrane; assay: Induction of cell membrane disruption in Staphylococcus aureus assessed as PI uptake at 2 to 4 times MIC incubated for 2 hrs by PI staining based confocal laser scanning microscopy; assay type: cell membranes
[22] = tested on: Escherichia coli; assay: Antibacterial activity against rifampicin resistant Escherichia coli incubated for 18 hrs by broth microdilution method; assay type: functional
[23] = tested on: Staphylococcus aureus; assay: Induction of morphological change in Staphylococcus aureus assessed as bacterial collapse at 2 times MIC incubated for 30 mins by SEM analysis; assay type: functional, organism-based
[24] = tested on: Klebsiella pneumoniae; assay: Antibacterial activity against Klebsiella pneumoniae ATCC 700603 incubated for 18 hrs by broth microdilution method; assay type: functional
[25] = tested on: Bacillus subtilis; assay: Bactericidal activity against Bacillus subtilis ATCC 23857 incubated for 18 hrs by broth microdilution method; assay type: functional
[26] = tested on: Escherichia coli; assay: Antibacterial activity against Escherichia coli incubated for 18 hrs by broth microdilution method; assay type: functional
[27] = tested on: Pseudomonas aeruginosa; assay: Antibacterial activity against Pseudomonas aeruginosa ATCC 27853 incubated for 18 hrs by broth microdilution method; assay type: functional
[28] = tested on: Staphylococcus aureus; assay: Antibacterial activity against Staphylococcus aureus ATCC 25923 incubated for 18 hrs by broth microdilution method; assay type: functional
[29] = tested on: Klebsiella pneumoniae; assay: Bactericidal activity against Klebsiella pneumoniae ATCC 700603 incubated for 18 hrs by broth microdilution method; assay type: functional
[30] = tested on: Pseudomonas aeruginosa; assay: Bactericidal activity against Pseudomonas aeruginosa ATCC 27853 incubated for 18 hrs by broth microdilution method; assay type: functional
[31] = tested on: Bacillus subtilis; assay: Antibacterial activity against Bacillus subtilis ATCC 23857 incubated for 18 hrs by broth microdilution method; assay type: functional
[32] = tested on: Escherichia coli; assay: Antibacterial activity against kanamycin resistant Escherichia coli incubated for 18 hrs by broth microdilution method; assay type: functional
[33] = tested on: Staphylococcus aureus; assay: Induction of morphological change in Staphylococcus aureus assessed as bacterial lysis at 2 times MIC incubated for 30 mins by SEM analysis; assay type: functional, organism-based
[34] = tested on: Cell membrane; assay: Induction of cell membrane disruption in Staphylococcus aureus assessed as PI uptake at 2 times MIC incubated for 2 hrs by PI staining based flow cytometry analysis (reference value: 15.9%); assay type: cell membranes
[35] = tested on: Staphylococcus aureus; assay: Antibacterial activity against methicillin resistant Staphylococcus aureus 113 incubated for 18 hrs by broth microdilution method; assay type: functional
[36] = tested on: Escherichia coli; assay: Antibacterial activity against Escherichia coli at 2 times MIC preincubated with 256 ug/ml LPS for 1 hr followed by bacterial addition and measured after 5 hrs; assay type: functional, organism-based; conditions: time 6.0 hrs
[37] = tested on: Staphylococcus epidermidis; assay: Bactericidal activity against Staphylococcus epidermidis ATCC 12228 incubated for 18 hrs by broth microdilution method; assay type: functional
[38] = Self-assembly property of compound in PBS assessed as beta-sheet content; assay type: physicochemical; conditions: buffer
[39] = Self-assembly property of compound in water assessed as beta-sheet content; assay type: physicochemical
[40] = tested on: Erythrocyte; assay: Hemolytic activity in mouse erythrocytes assessed as concentration required to cause 10% hemolysis incubated for 1 hr; assay type: toxicity, cell-based
[41] = Self-assembly property of compound in 50% TFE assessed as beta-sheet content; assay type: physicochemical
[42] = tested on: Staphylococcus aureus; assay: Antibacterial activity against Staphylococcus aureus at 2 times MIC preincubated for 1 hr with chymotrypsin followed by enzyme inactivation and bacterial addition and measured after 18 hrs; assay type: functional; conditions: time 19 hrs
[43] = tested on: Staphylococcus aureus; assay: Antibacterial activity against Staphylococcus aureus at 2 times MIC preincubated for 1 hr with trypsin followed by enzyme inactivation and bacterial addition and measured after 18 hrs; assay type: functional; conditions: time 19 hrs
[44] = Self-assembly property of compound in PBS assessed as beta-sheet nanofibers formation incubated for 1 hr by Thioflavin T based fluorescence spectrophotometer analysis; assay type: physicochemical; conditions: buffer, dose 0.5-1.5 µM
[45] = Retention time of the compound; assay type: physicochemical
[46] = tested on: Staphylococcus aureus; assay: Antibacterial activity against Staphylococcus aureus infected in BALB/c mouse systemic infection model assessed as reduction in lung bacterial load at 10 mg/kg, ip measured after 8 hrs; assay type: functional, organism-based
[47] = tested on: Staphylococcus aureus; assay: Antibacterial activity against Staphylococcus aureus infected in BALB/c mouse systemic infection model assessed as reduction in kidney bacterial load at 10 mg/kg, ip measured after 8 hrs; assay type: functional, organism-based
[48] = tested on: Staphylococcus aureus; assay: Antibacterial activity against Staphylococcus aureus infected in BALB/c mouse systemic infection model assessed as reduction in liver bacterial load at 10 mg/kg, ip measured after 8 hrs; assay type: functional, organism-based
[49] = tested on: Staphylococcus aureus; assay: Antibacterial activity against Staphylococcus aureus infected in BALB/c mouse systemic infection model assessed as reduction in spleen bacterial load at 10 mg/kg, ip measured after 8 hrs; assay type: functional, organism-based

Compound: POLYMYXIN B
Activity [1]: Active
MIC [2]: 8 µM
MIC [3]: 16 µM
MIC [4]: 8 µM
MBC [5]: 32 µM
Activity [6]: Active
fold change (FC) ([7]; time 18.0 hrs): 8
MIC [8]: 8 µM
Activity [9]: 42.6%
MIC [10]: 2 µM
MIC [11]: 2 µM
Activity [12]: 38%
Activity [13]: 45.4%
MIC [14]: 8 µM
MIC [15]: 16 µM
Activity [16]: Active
Activity [17]: Active
MBC [18]: 2 µM
MIC [19]: 8 µM
Activity [20]: inactive
Activity [21]: inactive
MIC [22]: 2 µM
Activity [23]: Active
MIC [24]: 2 µM
MBC [25]: 8 µM
MIC [26]: 2 µM
MIC [27]: 1 µM
MIC [28]: 8 µM
MBC [29]: 2 µM
MBC [30]: 1 µM
MIC [31]: 4 µM
MIC [32]: 16 µM
Activity [33]: Active
Activity [34]: 47.5%
MIC [35]: 8 µM
Activity [36]: inactive
MBC [37]: 16 µM

Activity [38]: 63%
Activity [39]: 63.8%
Activity [41]: 30.1%
MIC [8]: 4 µM (≈ 7.2 µg/mL)
MIC [10]: 8 µM (≈ 14.4 µg/mL)
MIC [24]: 8 µM (≈ 14.4 µg/mL)
MIC [27]: 8 µM (≈ 14.4 µg/mL)
MIC [28]: 4 µM (≈ 7.2 µg/mL)
Activity [44]: Not Active
MIC [31]: 2 µM (≈ 3.6 µg/mL)
Retention_time [45]: 14.321 min
Compound: NCCCC[C@@H](NC(=O)[C@H](N)Cc1c[nH]c2ccccc12)C(=O)N[C@H](Cc1c[nH]c2ccccc12)C(=O)N[C@H](CCCCN)C(=O)N[C@H](Cc1c[nH]c2ccccc12)C(=O)N1CCC[C@H]1C(=O)NCC(=O)N[C@H](Cc1c[nH]c2ccccc12)C(=O)N[C@H](CCCCN)C(=O)N[C@H](Cc1c[nH]c2ccccc12)C(=O)N[C@H](CCCCN)C(=O)N[C@H](Cc1c[nH]c2ccccc12)C(N)=O
MHC [40]: 46 µM
MBC [5]: 8 µM (≈ 14.4 µg/mL)
Activity [42]: 100%
MBC [18]: 8 µM (≈ 14.4 µg/mL)
MBC [25]: 8 µM (≈ 14.4 µg/mL)
Activity [43]: 100%
MBC [29]: 8 µM (≈ 14.4 µg/mL)
MBC [30]: 32 µM (≈ 57.6 µg/mL)
MBC [37]: 4 µM (≈ 7.2 µg/mL)

Compound: O=C(O)c1cn(C2CC2)c2cc(N3CCNCC3)c(F)cc2c1=O [CIPROFLOXACIN]
Activity [46]: Active
MIC [2]: 4 µM (≈ 1.33 µg/mL)
MIC [3]: 256 µM (≈ 84.8 µg/mL)
MIC [4]: 8 µM (≈ 2.65 µg/mL)
fold change (FC) ([7]; time 18 hrs): 128
MIC [8]: 8 µM (≈ 2.65 µg/mL)
MIC [10]: < 1 µM
MIC [11]: 0.5 µM (≈ 0.166 µg/mL)
MIC [14]: 8 µM (≈ 2.65 µg/mL)
MIC [15]: 256 µM (≈ 84.8 µg/mL)
MIC [19]: 256 µM (≈ 84.8 µg/mL)
MIC [22]: 0.5 µM (≈ 0.166 µg/mL)
MIC [24]: 8 µM (≈ 2.65 µg/mL)
Activity [47]: Active
MIC [26]: 0.5 µM (≈ 0.166 µg/mL)
MIC [27]: 2 µM (≈ 0.663 µg/mL)
MIC [28]: 8 µM (≈ 2.65 µg/mL)
MIC [31]: 2 µM (≈ 0.663 µg/mL)
MIC [32]: 2 µM (≈ 0.663 µg/mL)
MIC [35]: 16 µM (≈ 5.3 µg/mL)
Activity [48]: Active
Activity [49]: inactive
